Results reported in patent publication US11225480B2, “Malic enzyme inhibitors” (SUN PHARMA ADVANCED RESEARCH COMPANY LTD, priority 2019, dated 2022).

Assays:
Type in all cases: biochemical
human ME2 enzyme = human ME2 enzyme (Homo sapiens, UniProt P23368); experiment: ME2 inhibition assay (diaphorase/resazurin coupled fluorescence); conditions: 10 μM compound concentration; read-out: Malic Enzyme 2 % inhibition (10 μM)
Procedure, shortened: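 Human ME2 (10 μL of 60 nM) was preincubated 5 min at room temperature with compound (10 μM) in 50 mM Tris-HCl pH 7.5, 10 mM MnCl2, 7 mM L-malate, 50 μM resazurin and 0.025 mg/ml diaphorase. The reaction was started with 10 μL of 2 mM β-NAD+ and run 2 hours at room temperature. Resorufin fluorescence (ex 540/em 600 nm) was normalized to enzyme-only (100%) and no-enzyme (0%) controls as % activity.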

human ME3 enzyme = biological target: T1, human ME3 enzyme (Homo sapiens, UniProt Q16798); experiment: ME3 inhibition assay (diaphorase/resazurin coupled fluorescence); conditions: 10 μM compound concentration; read-out: Malic Enzyme 3 % inhibition (10 μM)
T1 sequence (Q16798 1-604): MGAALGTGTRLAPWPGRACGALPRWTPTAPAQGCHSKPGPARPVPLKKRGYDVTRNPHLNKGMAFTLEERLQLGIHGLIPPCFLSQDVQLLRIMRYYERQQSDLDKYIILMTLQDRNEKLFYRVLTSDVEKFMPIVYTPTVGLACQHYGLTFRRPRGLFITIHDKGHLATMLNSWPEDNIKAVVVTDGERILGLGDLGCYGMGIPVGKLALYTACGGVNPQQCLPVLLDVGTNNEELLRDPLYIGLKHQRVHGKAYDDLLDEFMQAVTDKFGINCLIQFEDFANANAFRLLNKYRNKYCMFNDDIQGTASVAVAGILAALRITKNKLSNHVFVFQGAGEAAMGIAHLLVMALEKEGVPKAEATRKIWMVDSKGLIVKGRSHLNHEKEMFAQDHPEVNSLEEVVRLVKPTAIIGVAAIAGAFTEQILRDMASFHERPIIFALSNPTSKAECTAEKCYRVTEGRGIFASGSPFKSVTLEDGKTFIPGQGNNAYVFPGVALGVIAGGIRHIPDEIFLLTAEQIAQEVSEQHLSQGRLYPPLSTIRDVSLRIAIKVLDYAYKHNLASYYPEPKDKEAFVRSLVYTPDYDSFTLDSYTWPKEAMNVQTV
Procedure, shortened: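 Coupled read-out: NADPH made by human ME3 (20 nM stock) drives diaphorase conversion of resazurin (50 μM) to resorufin; buffer 50 mM Tris-HCl pH 7.5, 10 mM MnCl2, 3 mM L-malate.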

human ME1 enzyme = biological target: T2, human ME1 enzyme (Homo sapiens, UniProt P48163); experiment: ME1 inhibition assay (diaphorase/resazurin coupled fluorescence); conditions: 10 μM compound concentration; read-out: Malic Enzyme 1 % inhibition (10 μM)
T2 sequence (P48163 1-572): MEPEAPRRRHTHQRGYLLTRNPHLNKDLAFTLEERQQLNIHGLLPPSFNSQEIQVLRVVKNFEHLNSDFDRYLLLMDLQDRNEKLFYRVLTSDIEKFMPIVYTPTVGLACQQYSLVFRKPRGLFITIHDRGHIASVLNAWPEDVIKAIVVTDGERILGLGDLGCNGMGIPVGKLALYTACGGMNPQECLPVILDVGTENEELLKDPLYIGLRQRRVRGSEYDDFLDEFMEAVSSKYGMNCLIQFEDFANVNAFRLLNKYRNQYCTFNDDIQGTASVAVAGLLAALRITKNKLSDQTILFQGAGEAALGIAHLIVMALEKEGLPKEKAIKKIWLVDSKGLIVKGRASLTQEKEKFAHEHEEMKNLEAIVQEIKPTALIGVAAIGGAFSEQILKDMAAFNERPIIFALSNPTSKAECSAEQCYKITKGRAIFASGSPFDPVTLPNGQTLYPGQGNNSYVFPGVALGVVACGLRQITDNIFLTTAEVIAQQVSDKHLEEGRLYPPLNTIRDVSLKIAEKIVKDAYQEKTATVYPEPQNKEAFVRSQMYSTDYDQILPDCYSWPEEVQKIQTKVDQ
Procedure, shortened: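 Compounds at 10 μM preincubated 15 min in 50 mM Tris-HCl pH 7.5, 10 mM MnCl2, 2 mM L-malate, 10 μM resazurin, 0.01 mg/ml diaphorase, then human ME1 added for 5 min; reaction started with NADP+ and run 2 h at room temperature. Resorufin fluorescence (ex 540/em 600 nm) normalized to enzyme-only (100%) and no-enzyme (0%) controls.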

human ME2 enzyme, sequence (P23368 19-584): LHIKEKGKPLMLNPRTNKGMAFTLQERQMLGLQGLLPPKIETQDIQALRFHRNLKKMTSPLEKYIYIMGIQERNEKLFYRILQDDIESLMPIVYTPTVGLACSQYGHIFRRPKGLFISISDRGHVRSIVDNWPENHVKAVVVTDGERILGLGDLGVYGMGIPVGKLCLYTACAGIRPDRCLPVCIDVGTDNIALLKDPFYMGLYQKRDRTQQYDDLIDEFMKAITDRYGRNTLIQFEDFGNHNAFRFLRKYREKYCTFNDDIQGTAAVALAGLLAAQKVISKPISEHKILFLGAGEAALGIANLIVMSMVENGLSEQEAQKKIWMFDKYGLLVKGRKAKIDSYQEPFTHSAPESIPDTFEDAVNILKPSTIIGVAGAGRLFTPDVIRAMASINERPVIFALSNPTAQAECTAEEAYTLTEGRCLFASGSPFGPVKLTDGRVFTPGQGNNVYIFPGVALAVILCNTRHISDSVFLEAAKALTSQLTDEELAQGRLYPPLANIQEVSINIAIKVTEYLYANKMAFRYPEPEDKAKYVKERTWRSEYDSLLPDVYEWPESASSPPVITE

Row | Compound | inhibition at 10 µM (human ME2 enzyme) | inhibition at 10 µM (human ME3 enzyme) | inhibition at 10 µM (human ME1 enzyme)
1 | CN(CC(=O)N1CCN(c2ccc(O)cn2)CC1)CC12CC3CC(CC(C3)C1)C2 [I.96, 2-[1-Adamantyl-methyl-(methyl)-amino]-1-[4-(5-hydroxy-2-pyridyl)-piperazin-1-yl]ethanone] | 70 to 89% | > 90% | 70 to 89%
2 | Cc1ccccc1CCC(=O)N1CCN(c2ccc(O)cn2)CC1 [I.107, 1-[4-(5-Hydroxy-pyridin-2-yl)-piperazin-1-yl]-3-o-tolyl-propan-1-one] | > 90% | > 90% | > 90%
3 | CC(CC(=O)N1CCN(c2ccc(O)cn2)CC1)c1ccccc1 (stereo not drawn) [I.115, 1-[4-(5-Hydroxy-pyridin-2-yl)-piperazin-1-yl]-3-phenyl-butan-1-one dihydro-chloride] | > 90% | > 90% | > 90%
4 | O=C(CCc1cccs1)N1CCN(c2ccc(O)cn2)CC1 [I.116, 1-[4-(5-Hydroxy-pyridin-2-yl)-piperazin-1-yl]-3-thiophen-2-yl-propan-1-one] | > 90% | > 90% | > 90%
5 | O=C(CCC1CCCCC1)N1CCN(c2ccc(O)cn2)CC1 [I.121, 3-Cyclohexyl-1-[4-(5-hydroxy-2-pyridyl)-piperazin-1-yl]propan-1-one] | > 90% | > 90% | > 90%
6 | O=C(CCc1cc2ccccc2s1)N1CCN(c2ccc(O)cn2)CC1 [I.122, 3-Benzo[b]-thiophen-2-yl-1-[4-(5-hydroxy-pyridin-2-yl)-piperazin-1-yl]-propan-1-one] | > 90% | > 90% | > 90%
7 | O=C(c1ccc(-c2ccccc2)s1)N1CCN(c2ccc(O)cn2)CC1 [I.123, [4-(5-Hydroxy-pyridin-2-yl)-piperazin-1-yl]-(5-phenyl-thiophen-2-yl)-methanone] | 70 to 89% | > 90% | 70 to 89%
8 | O=C(C1CC(O)(c2ccccc2)C1)N1CCN(c2ccc(O)cn2)CC1 (stereo not drawn) [I.124, (3-Hydroxy-3-phenylcyclo-butyl)-[4-(5-hydroxy-pyridin-2-yl)-piperazin-1-yl]-methanone] | > 90% | > 90% | > 90%
9 | CC(C)(CC(=O)N1CCN(c2ccc(O)cn2)CC1)c1ccccc1 [I.125, 1-[4-(5-Hydroxy-pyridin-2-yl)-piperazin-1-yl]-3-methyl-3-phenyl-butan-1-one] | > 90% | > 90% | > 90%
10 | O=C(CCc1ccc(F)cc1)N1CCN(c2ccc(O)cn2)CC1 [I.126, 3-(4-Fluoro-phenyl)-1-[4-(5-hydroxy-pyridin-2-yl)-piperazin-1-yl]-propan-1-one] | > 90% | > 90% | > 90%
11 | Cc1[nH]c2ccccc2c1CC(=O)N1CCN(c2ccc(O)cn2)CC1 [I.127, 1-[4-(5-Hydroxy-pyridin-2-yl)-piperazin-1-yl]-2-(2-methyl-1H-indol-3-yl)-ethanone] | > 90% | > 90% | > 90%
12 | O=C(CCc1ccccc1C(F)(F)F)N1CCN(c2ccc(O)cn2)CC1 [I.128, 1-[4-(5-Hydroxy-pyridin-2-yl)-piperazin-1-yl]-3-(2-trifluoro-methylphenyl)-propan-1-one] | > 90% | > 90% | > 90%
13 | O=C(CCc1ccccn1)N1CCN(c2ccc(O)cn2)CC1 [I.129, 1-[4-(5-Hydroxy-pyridin-2-yl)-piperazin-1-yl]-3-pyridin-2-yl-propan-1-one] | 70 to 89% | > 90% | 70 to 89%
14 | O=C(CC(O)c1ccccc1)N1CCN(c2ccc(O)cn2)CC1 (stereo not drawn) [I.130, 3-Hydroxy-1-[4-(5-hydroxy-pyridin-2-yl)-piperazin-1-yl]-3-phenyl-propan-1-one] | > 90% | > 90% | 70 to 89%
15 | O=C(Cc1c[nH]c2ccc(F)cc12)N1CCN(c2ccc(O)cn2)CC1 [I.131, 2-(5-fluoro-1H-indol-3-yl)-1-[4-(5-hydroxypyridin-2-yl)-piperazin-1-yl]-ethanone] | > 90% | > 90% | > 90%
16 | O=C(C1CCCc2ccccc21)N1CCN(c2ccc(O)cn2)CC1 (stereo not drawn) [I.132, [4-(5-Hydroxy-pyridin-2-yl)-piperazin-1-yl]-(1,2,3,4-tetrahydro-naphthalen-1-yl)-methanone] | > 90% | > 90% | 70 to 89%
17 | O=C(C1CC(c2ccccc2)C1)N1CCN(c2ccc(O)cn2)CC1 (stereo not drawn) [I.134, [4-(5-Hydroxy-pyridin-2-yl)-piperazin-1-yl]-(3-phenyl-cyclobutyl)-methanone] | > 90% | > 90% | > 90%
18 | O=C(CCn1ccc2ccccc21)N1CCN(c2ccc(O)cn2)CC1 [I.135, 1-[4-(5-Hydroxy-pyridin-2-yl)-piperazin-1-yl]-3-indol-1-yl-propan-1-one] | > 90% | > 90% | 70 to 89%
19 | O=C(CCn1cnc2ccccc21)N1CCN(c2ccc(O)cn2)CC1 [I.136, 3-Benzo-imidazol-1-yl-1-[4-(5-hydroxy-pyridin-2-yl)-piperazin-1-yl]-propan-1-one] | > 90% | > 90% | 70 to 89%
20 | O=C(CC1CC1)N1CCN(c2ccc(O)cn2)CC1 [I.137, 2-Cyclo-propyl-1-[4-(5-hydroxy-2-pyridyl)-piperazin-1-yl]ethanone] | > 90% | > 90% | > 90%
21 | N#Cc1ccc(CCC(=O)N2CCN(c3ccc(O)cn3)CC2)cc1 [I.138, 3-(4-Cyano-phenyl)-1-[4-(5-hydroxy-pyridin-2-yl)-piperazin-1-yl]-propan-1-one] | > 90% | > 90% | > 90%
22 | O=C(CCc1ccc(C(F)(F)F)cc1)N1CCN(c2ccc(O)cn2)CC1 [I.139, 3-(4-Trifluoro-methylphenyl)-1-[4-(5-hydroxy-pyridin-2-yl)-piperazin-1-yl]-propan-1-one] | > 90% | > 90% | > 90%
23 | O=C(CCC1CC1)N1CCN(c2ccc(O)cn2)CC1 [I.140, 3-Cyclo-propyl-1-[4-(5-hydroxy-2-pyridyl)-piperazin-1-yl]propan-1-one] | > 90% | > 90% | > 90%
24 | O=C(O)c1ccccc1CCC(=O)N1CCN(c2ccc(O)cn2)CC1 [I.141, 2-{3-[4-(5-Hydroxy-pyridin-2-yl)-piperazin-1-yl]-3-oxo-propyl}-benzoic acid] | > 90% | > 90% | 70 to 89%
25 | COC(=O)c1ccccc1CCC(=O)N1CCN(c2ccc(O)cn2)CC1 [I.142, 2-{3-[4-(5-Hydroxy-pyridin-2-yl)-piperazin-1-yl]-3-oxo-propyl}-benzoic acid methyl ester] | > 90% | > 90% | 70 to 89%
